From ChEMBL document CHEMBL3885861, “Open TG-GATES”

Organism: Rattus norvegicus
Experiment: Open TG-GATES - Regimen: Single
Format: toxicity, organism-based, Sprague-Dawley
Set-up: regimen Single, gender Male, age 6 weeks
Settings: in vivo, po, 3 mg/kg, route gavage, dose level Low; for APTT / Bas / Eos / Fbg / Hb / Ht / Lym / MCH / MCHC / MCV / Mono / Neu / PT / Plat / RBC / Ret / WBC: tissue Blood; for KIDNEY_L / KIDNEY_R / KIDNEY_TOTAL: tissue Kidney; for LIVER: tissue Liver; for A/G / ALP / ALT / AST / BUN / CRE / Ca / Cl / DBIL / GLC / IP / K / LDH / Na / PL / RALB / TBIL / TC / TG / TP / gamma-GTP: tissue Plasma

Nc1c2c(nc3ccccc13)CCCC2 [TACRINE]
TERMINAL_BW (3 h): 208.2 g | APTT (3 h): 21.3 s | Bas (3 h): 0% | Eos (3 h): 0.4% | Fbg (3 h): 283.8 mg/dL | Hb (3 h): 13.4 g/dL | Ht (3 h): 39% | Lym (3 h): 77% | MCH (3 h): 21.5 pg | MCHC (3 h): 34.4% | MCV (3 h): 62.5 fL | Mono (3 h): 2.2% | Neu (3 h): 19.4% | PT (3 h): 16.1 s | Plat (3 h): 120.6 x10_4/uL | RBC (3 h): 623.8 x10_4/ul | Ret (3 h): 8.2% | WBC (3 h): 90.3 x10_2/uL | KIDNEY_L (3 h): 0.9 g | KIDNEY_R (3 h): 0.9 g | KIDNEY_TOTAL (3 h): 1.9 g | LIVER (3 h): 9.4 g | A/G (3 h): 1.3 | ALP (3 h): 1562.6 IU/L | ALT (3 h): 45.6 IU/L | AST (3 h): 79.6 IU/L | BUN (3 h): 13.4 mg/dL | CRE (3 h): 0.2 mg/dL | Ca (3 h): 10.7 mg/dL | Cl (3 h): 107 meq/L | DBIL (3 h): 0.002 mg/dL | GLC (3 h): 184.2 mg/dL | IP (3 h): 8 mg/dL | K (3 h): 4 meq/L | LDH (3 h): 251.6 IU/L | Na (3 h): 142.6 meq/L | PL (3 h): 139.2 mg/dL | RALB (3 h): 3 g/dL | TBIL (3 h): 0.024 mg/dL | TC (3 h): 75 mg/dL | TG (3 h): 64 mg/dL | TP (3 h): 5.4 g/dL | gamma-GTP (3 h): 1 IU/L | TERMINAL_BW (6 h): 200.8 g | APTT (6 h): 20.8 s | Bas (6 h): 0% | Eos (6 h): 0.8% | Fbg (6 h): 312.8 mg/dL | Hb (6 h): 13.6 g/dL | Ht (6 h): 39.2% | Lym (6 h): 78.8% | MCH (6 h): 21.2 pg | MCHC (6 h): 34.6% | MCV (6 h): 61.2 fL | Mono (6 h): 2.4% | Neu (6 h): 17.2% | PT (6 h): 15.6 s | Plat (6 h): 125.6 x10_4/uL | RBC (6 h): 641 x10_4/ul | Ret (6 h): 7.7% | WBC (6 h): 102.1 x10_2/uL | KIDNEY_L (6 h): 0.9 g | KIDNEY_R (6 h): 0.9 g | KIDNEY_TOTAL (6 h): 1.8 g | LIVER (6 h): 8.7 g | A/G (6 h): 1.2 | ALP (6 h): 1243.4 IU/L | ALT (6 h): 34.8 IU/L | AST (6 h): 67.2 IU/L | BUN (6 h): 11.4 mg/dL | CRE (6 h): 0.2 mg/dL | Ca (6 h): 10.6 mg/dL | Cl (6 h): 106.8 meq/L | DBIL (6 h): 0.002 mg/dL | GLC (6 h): 175.6 mg/dL | IP (6 h): 9 mg/dL | K (6 h): 4.4 meq/L | LDH (6 h): 200 IU/L | Na (6 h): 142 meq/L | PL (6 h): 148 mg/dL | RALB (6 h): 3.1 g/dL | TBIL (6 h): 0.024 mg/dL | TC (6 h): 76 mg/dL | TG (6 h): 89.6 mg/dL | TP (6 h): 5.5 g/dL | gamma-GTP (6 h): 1 IU/L | TERMINAL_BW (9 h): 200.1 g | APTT (9 h): 19.8 s | Bas (9 h): 0% | Eos (9 h): 1% | Fbg (9 h): 303.6 mg/dL | Hb (9 h): 13.4 g/dL | Ht (9 h): 39% | Lym (9 h): 78.2% | MCH (9 h): 20.9 pg | MCHC (9 h): 34.4% | MCV (9 h): 60.7 fL | Mono (9 h): 2.6% | Neu (9 h): 17.8% | PT (9 h): 16.3 s | Plat (9 h): 115.2 x10_4/uL | RBC (9 h): 643 x10_4/ul | Ret (9 h): 7.8% | WBC (9 h): 92.4 x10_2/uL | KIDNEY_L (9 h): 0.9 g | KIDNEY_R (9 h): 0.9 g | KIDNEY_TOTAL (9 h): 1.8 g | LIVER (9 h): 8.3 g | A/G (9 h): 1.2 | ALP (9 h): 1371.2 IU/L | ALT (9 h): 36 IU/L | AST (9 h): 70.6 IU/L | BUN (9 h): 12.4 mg/dL | CRE (9 h): 0.1 mg/dL | Ca (9 h): 10.6 mg/dL | Cl (9 h): 107.8 meq/L | DBIL (9 h): 0.002 mg/dL | GLC (9 h): 181.6 mg/dL | IP (9 h): 9.8 mg/dL | K (9 h): 4.5 meq/L | LDH (9 h): 253.4 IU/L | Na (9 h): 141.6 meq/L | PL (9 h): 134.4 mg/dL | RALB (9 h): 2.9 g/dL | TBIL (9 h): 0.012 mg/dL | TC (9 h): 69.8 mg/dL | TG (9 h): 97.8 mg/dL | TP (9 h): 5.4 g/dL | gamma-GTP (9 h): 1 IU/L | TERMINAL_BW (24 h): 217.8 g | APTT (24 h): 21.2 s | Bas (24 h): 0% | Eos (24 h): 1% | Fbg (24 h): 292 mg/dL | Hb (24 h): 13.6 g/dL | Ht (24 h): 39.7% | Lym (24 h): 80.8% | MCH (24 h): 21.3 pg | MCHC (24 h): 34.2% | MCV (24 h): 62.4 fL | Mono (24 h): 3% | Neu (24 h): 14.4% | PT (24 h): 16.2 s | Plat (24 h): 113.1 x10_4/uL | RBC (24 h): 636.6 x10_4/ul | Ret (24 h): 7.5% | WBC (24 h): 92.6 x10_2/uL | KIDNEY_L (24 h): 1 g | KIDNEY_R (24 h): 1 g | KIDNEY_TOTAL (24 h): 1.9 g | LIVER (24 h): 10 g | A/G (24 h): 1.3 | ALP (24 h): 1864.4 IU/L | ALT (24 h): 46.8 IU/L | AST (24 h): 80 IU/L | BUN (24 h): 15.6 mg/dL | CRE (24 h): 0.1 mg/dL | Ca (24 h): 10.8 mg/dL | Cl (24 h): 107.8 meq/L | DBIL (24 h): 0.002 mg/dL | GLC (24 h): 197.4 mg/dL | IP (24 h): 7.2 mg/dL | K (24 h): 4.1 meq/L | LDH (24 h): 293.2 IU/L | Na (24 h): 141.6 meq/L | PL (24 h): 146.8 mg/dL | RALB (24 h): 3.1 g/dL | TBIL (24 h): 0.032 mg/dL | TC (24 h): 74.4 mg/dL | TG (24 h): 107 mg/dL | TP (24 h): 5.5 g/dL | gamma-GTP (24 h): 1 IU/L
